Results as given in patent publication US10501479B2, “Benzenesulfonyl-asymmetric ureas and medical uses thereof” (HELSINN HEALTHCARE SA, priority 2016, dated 2019).
Read-outs that look alike come from different tables or passages of the source.

Legend:
[1] = Metabolic stability in rat liver microsomes; format: in vitro ADME
Experimental: (§1) Metabolic Stability Study
(§2) The metabolic stability of compounds in human, dog, rat and mouse liver microsomes was performed according the experimental conditions reported below:
(§3) • a) Prepare the following 5 stock solutions: • 1. Test compound stock solutions: dilute 10 mM solution of dextromethorphan (Dtr) in DMSO, 10 mM solution of diphenhydramine (DPA) in DMSO, 10 mM solution of omeprazole (Ome) in DMSO, 10 mM solution of verapamil (Ver) in DMSO, and 10 mM of an inverse agonist compound in DMSO to 0.25 mM solution each with acetonitrile/water (70/30). • 2. Buffer: 100 mM potassium phosphate Buffer (PBS) at pH 7.4 • 3. Liver microsomes (20 mg/ml): Thaw in 37° C. water bath quickly • 4. 2000 μL: of NADPH regenerating system (1.3 mM). Place this system on ice before use:
(§4) • 5. […] The test compound concentration in the wells, measured by LC-MS/MS, represents the concentration at time=0. • f) To determine the test compound concentration when t≠0, pre-incubate the NADPH regenerating system and the incubation plate containing the remaining 320 μL of incubation mixture (microsomes protein and test compound) for 5 minutes at 37° C. • g) Start the incubation reaction by adding 80 μL NADPH regenerating system to each well containing the remaining 320 μL incubation mixture. • h) After 10 min., 30 min., and 90 min. of incubation at 37° C., transfer 100 μL of the incubation mixture (microsomes protein, test compound, and NADPH) into the wells of a stop plate pre-filled with 300 μL of the cold quench solution. Shake well. • i) Centrifuge the stop plate at 5000×g for 10 minutes. Collect and dilute the supernatant 3 times with distilled water. Sample and analyze the test compound concentration for all the wells by LC-MS/MS. Animal PK Studies via i.v. (intravenous), p.o. (orally) and s.c. (subcutaneous) administrations

[2] = biological target: T1, GHSR-1a (HEK293/GHSR1a cell line) (Homo sapiens, UniProt Q92847); experiment: Ghrelin antagonist potency (IC50) with calcium FLIPR assay, ghrelin 10 nM; format: cell-based
T1 construct: expressed in transfected cells; host or cells: HEK293/GHSR1a cell line
T1 sequence (Q92847 whole entry): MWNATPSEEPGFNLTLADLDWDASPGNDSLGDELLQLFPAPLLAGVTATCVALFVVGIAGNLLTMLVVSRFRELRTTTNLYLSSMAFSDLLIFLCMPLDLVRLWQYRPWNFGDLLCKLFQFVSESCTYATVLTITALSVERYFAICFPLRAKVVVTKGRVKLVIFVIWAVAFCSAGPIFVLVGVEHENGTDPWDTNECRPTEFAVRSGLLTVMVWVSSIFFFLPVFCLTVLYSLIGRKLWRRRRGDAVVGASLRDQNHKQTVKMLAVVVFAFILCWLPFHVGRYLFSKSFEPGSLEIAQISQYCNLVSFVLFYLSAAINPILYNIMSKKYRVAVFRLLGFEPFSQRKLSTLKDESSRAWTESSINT
Summary of the method: (§5)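 The cells were plated a day ahead and loaded with a calcium-sensitive dye. Test compound was then added and incubated 15 min, followed by ghrelin. Antagonist potency was calculated from inhibition of the response to 10 nM ghrelin, and agonist potency from the calcium rise caused by compound alone.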

[3] = Metabolic stability in dog liver microsomes; format: in vitro ADME
Experimental: as §1, §2, §3, §4

[4] = Metabolic stability in mouse liver microsomes; format: in vitro ADME
Summary of the method: (§6)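 First, microsomes and compound are preincubated 5 min at 37 °C in pH 7.4 phosphate buffer. Next, an NADPH regenerating system starts the reaction. Then aliquots are quenched cold at 10, 30 and 90 min, centrifuged and analysed by LC-MS/MS.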

[5] = Metabolic stability in human liver microsomes; format: in vitro ADME
Summary of the method: as §6

[6] = biological target: T2, recombinant human ghrelin receptor (HEK293/GRLN) (Homo sapiens, UniProt Q92847); experiment: Ghrelin inverse agonist potency (EC50) with IP-1 (IP-One HTRF) assay; format: cell-based; conditions: IP-1 assay
T2 construct: expressed in transfected cells
T2 sequence (Q92847 whole entry): as above
Summary of the method: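 IP-1 accumulation was measured by HTRF (IP1-d2/Tb-cryptate, 620/665 nm read after 1 hour at room temperature) following 1 hour of compound treatment at 37° C. Cells were HEK293 stably expressing human ghrelin receptor, plated a day earlier on Matrigel. Inverse agonist potency was reported as EC50.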

[7] = Animal PK study in mouse via i.v., p.o. and s.c. administration; format: in vivo
Summary of the method: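 Plasma drug levels were measured by LC-MS/MS after acetonitrile precipitation, with blood drawn up to 24 h post-dose (from 0.083 h i.v./s.c., 0.25 h oral) in mice or rats. Animals received one dose by gavage in DMSO/methylcellulose, or by tail-vein or subcutaneous injection in DMSO/HP-β-cyclodextrin.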

[8] = biological target: T1, GHSR-1a (HEK293/GHSR1a cell line); experiment: Ghrelin agonist potency (EC50) with calcium FLIPR assay; format: cell-based
Summary of the method: as §5

[9] = ghrelin antagonist potency, read-out: IC50 (Activity)
[10] = inverse agonist potency, read-out: EC50 (Activity)
[11] = HEK293/GHSR1a, read-out: Activity EC50/EMax: EC50 (ghrelin agonist potency)
[12] = HEK293/GHSR1a, ghrelin 10 nM, read-out: Activity IC50 (ghrelin antagonist potency)
[13] = HEK293/GRLN, read-out: Activity EC50 (ghrelin inverse agonist potency)

SMILES | Metabolic Stability Study R = rat [1] | IC50 [2, 9] | Metabolic Stability Study D = dog [3] | Metabolic Stability Study M = mouse [4] | Metabolic Stability Study H = human [5] | EC50 [6, 10] | EC50 [8, 11] | IC50 [2, 12] | EC50 [6, 13] | other results
COc1ccc([C@H](C)NC(=O)Nc2ccc(S(=O)(=O)Nc3ccc(CC(C)(C)N)cc3)cc2)c(Cl)c1Cl [H0937, (S)-N-(4-(2-amino-2-methylpropyl)phenyl)-4-(3-(1-(2,3-dichloro-4-methoxyphenyl)ethyl)ureido) benzenesulfonamide] | H = <10 M = <10 R = <10 D = <10 μL/min/mg | 84 nM | H = <10 M = <10 R = <10 D = <10 μL/min/mg | H = <10 M = <10 R = <10 D = <10 μL/min/mg | H = <10 M = <10 R = <10 D = <10 μL/min/mg | 12.7 nM |  |  |  | 
C[C@H](NC(=O)Nc1ccc(S(=O)(=O)Nc2ccc(CC(C)(C)N)cc2)cc1)c1cccc(Cl)c1Cl.Cl [H0943, (S)-N-(4-(2-amino-2-methylpropyl)phenyl)-4-(3-(1-(2,3-dichlorophenyl)ethyl)ureido) benzenesulfonamide] | 11.7 µL/min/mg | 7.8 nM | < 10 µL/min/mg | < 10 µL/min/mg | 10.6 µL/min/mg | 2.5 nM |  |  |  | 
CC(C)(N)Cc1ccc(NS(=O)(=O)c2ccc(NC(=O)NCc3ccccc3)cc2)cc1.Cl [H0993, N-(4-(2-amino-2-methylpropyl)phenyl)-4-(3-benzylureido) benzenesulfonamide] | 15.1 µL/min/mg | 288 nM | < 10 µL/min/mg | 14.3 µL/min/mg | 18.5 µL/min/mg | 21 nM |  |  |  | PK F [7]: 0.4%; PK CLiv ([7]; i.v.): 2.15 L/h/kg; PK Vdiv ([7]; i.v.): 4.31 L/kg; PK t1/2iv ([7]; i.v.): 1.39 h; PK CLpo ([7]; p.o.): 438.1 L/h/kg; PK Vdpo ([7]; p.o.): 2550 L/kg; PK t1/2po ([7]; p.o.): 4.03 h
CN(C)C(C)(C)Cc1ccc(NS(=O)(=O)c2ccc(NC(=O)NCc3cccc(Cl)c3Cl)cc2)cc1 [H0995, 4-(3-(2,3-dichlorobenzyl)ureido)-N-(4-(2-(dimethylamino)-2-methylpropyl)phenyl) benzenesulfonamide] | 92.4 µL/min/mg | 32.1 nM | 52.7 µL/min/mg | 194.6 µL/min/mg | 54.5 µL/min/mg | 2.52 nM |  |  |  | 
CC(C)(N)Cc1ccc(CS(=O)(=O)c2ccc(NC(=O)NCc3cccc(Cl)c3Cl)cc2)cc1 [H0996, 1-(4-((4-(2-amino-2-methylpropyl)benzyl)sulfonyl)phenyl)-3-(2,3-dichlorobenzyl)urea] | 77.8 µL/min/mg | 461 nM | < 10 µL/min/mg | 125.4 µL/min/mg | 27.5 µL/min/mg | 64 nM |  |  |  | 
C[C@H](NC(=O)Nc1ccc(S(=O)(=O)Cc2ccc3[nH]ccc3c2)cc1)c1cccc(Cl)c1Cl [H1142, (S)-1-(4-(((1H-indol-5-yl)methyl)sulfonyl)phenyl)-3-(1-(2,3-dichlorophenyl)ethyl)urea] | 209.6 µL/min/mg |  |  | 151.4 µL/min/mg | 114.9 µL/min/mg | 440 nM |  |  |  | 
C[C@@H](NC(=O)Nc1ccc(S(=O)(=O)Cc2ccc3c(c2)CNC3)cc1)c1ccccc1 [H1214, (R)-1-(4-((isoindolin-5-ylmethyl)sulfonyl)phenyl)-3-(1-phenylethyl)urea] | 18 µL/min/mg | 278 nM | < 10 µL/min/mg | 21.4 µL/min/mg | 16.6 µL/min/mg | 147 nM |  |  |  | 
CC(NC(=O)Nc1ccc(S(=O)(=O)Cc2cc(F)c3c(c2)CCN(C)C3)cc1)c1cccc(Cl)c1Cl (stereo not shown) [H1378, 1-(1-(2,3-dichlorophenyl)ethyl)-3-(4-(((8-fluoro-2-methyl-1,2,3,4-tetrahydroisoquinolin-6-yl)methyl)sulfonyl)phenyl)urea] |  |  | 227.9 µL/min/mg | 245.9 µL/min/mg | 151.7 µL/min/mg |  | > 30000 nM | 19 nM | 1.3 nM | 
CC(NC(=O)Nc1ccc(S(=O)(=O)Cc2nc3c(s2)CN(C)CC3)cc1)c1cccc(Cl)c1Cl (stereo not shown) [H1379, 1-(1-(2,3-dichlorophenyl)ethyl)-3-(4-(((5-methyl-4,5,6,7-tetrahydrothiazolo[5,4-c]pyridin-2-yl)methyl)sulfonyl)phenyl)urea] |  |  | > 500 µL/min/mg | > 500 µL/min/mg | 261.6 µL/min/mg |  | > 30000 nM | 44.3 nM | 1.43 nM | 
CC(NC(=O)Nc1ccc(S(=O)(=O)Cc2ccc3c(c2)CC(C)N(C)C3)cc1)c1cccc(Cl)c1Cl (stereo not shown) [H1380, 1-(1-(2,3-dichlorophenyl)ethyl)-3-(4-(((2,3-dimethyl-1,2,3,4-tetrahydroisoquinolin-6-yl)methyl)sulfonyl)phenyl)urea] |  |  | 169.9 µL/min/mg | 66.5 µL/min/mg | 137 µL/min/mg |  |  | 2.3 nM | 0.367 nM | 
COc1ccccc1C(C)NC(=O)Nc1ccc(S(=O)(=O)Cc2ccc3c(c2)CNC3)cc1 (stereo not shown) [H1382, 1-(4-((isoindolin-5-ylmethyl)sulfonyl)phenyl)-3-(1-(2-methoxyphenyl)ethyl)urea] |  |  | 41.9 µL/min/mg | 43.4 µL/min/mg | 42.4 µL/min/mg |  | > 30000 nM | 34.3 nM | 2.68 nM | 
COc1cc(S(=O)(=O)Cc2ccc3c(c2)CNC3)ccc1NC(=O)NC(C)c1ccccc1.Cl (stereo not shown) [H1383, 1-(4-((isoindolin-5-ylmethyl)sulfonyl)-2-methoxyphenyl)-3-(1-phenylethyl)urea] | 48.2 µL/min/mg |  | 27.8 µL/min/mg | 91.9 µL/min/mg | 21 µL/min/mg |  | > 30000 nM | 11.9 nM | 2.01 nM | 
COc1cc(S(=O)(=O)Cc2ccc3c(c2)C(F)CN(C)C3)ccc1NC(=O)N[C@H](C)c1cccc(Cl)c1Cl (stereo partly drawn) [H1544, 1-((R)-1-(2,3-dichlorophenyl)ethyl)-3-(4-(((4-fluoro-2-methyl-1,2,3,4-tetrahydroisoquinolin-6-yl)methyl)sulfonyl)-2-methoxyphenyl)urea] | 427.2 µL/min/mg |  |  |  | 323.3 µL/min/mg |  |  |  |  | EC50 ([8]; ghrelin agonist potency, read-out: Activity EC50/EMax): > 30000 nM; IC50 ([2]; ghrelin antagonist potency, read-out: Activity IC50): 40.4 nM; EC50 ([6]; ghrelin inverse agonist potency, read-out: Activity EC50): 9.7 nM
